Measurements from patent publication US20240408130A1, “Combination of Silicon and Magnesium for the Prevention and Treatment of Muscle Cramps” (Bio Minerals NV, priority 2019, published 2024).
“And” between values parts separate entries of the source, which are not always exact repeats. Identical values can stand only once. Counter-ions that a name gives are not always drawn.

How the values were obtained:
muscle cramps [1] = conditions: cited from earlier work
muscle cramps [2] = test: Case reports of patients with muscle cramps given magnesium alone or Biosil plus Promagnor (Examples 1-7); assay type: in vivo, human; conditions: patient, recurrent skeletal muscle cramps for 23 years; magnesium salt alone, 450 mg per day
Source text: A patient had recurrent muscle cramps during a period of 23 years. Muscle cramps occurred in skeletal muscles in hands, lower arms and legs, as well as in intercostal muscles. […] Muscle cramps occurred during the day as well as during the night, at a frequency of several cramps per day. As a consequence, the muscle cramps prohibited working as a doctor and further prohibited swimming or any other sport. […] This ineffective result is consistent with the conclusions of Garrison (supra) and Young (supra), that magnesium supplementation is not effective in the treatment of muscle cramps.
The patient thereafter switched to a therapy comprising on a daily basis 10 mg stabilized silicic acid, wherein the silicic acid was in the form of orthosilicic acid and/or oligomers. The stabilizer was choline, which was administered at a daily dose of 200 mg. This combination is sold as Biosil® and is commercially available from Bio Minerals N.V., Destelbergen, Belgium. Use was made of the solid form of Biosil®. Two capsules per day were administered. The magnesium dose was 450 mg, and was in the form of magnesium phosphate, magnesium citrate, or magnesium bicarbonate. It was a dosage form of magnesium commercially supplied as Promagnor™ by Merck Consumer Healthcare nv, Overijse, Belgium. […]

muscle cramps [3] = test: Cross-over trial in patients with frequent muscle cramps, cramp frequency recorded daily in a diary (Example 8); assay type: in vivo, human
Method: Female and male patients (age 33 to 86 years) experiencing frequent muscle cramps participated in a cross-over trial. The design of the cross-over trial is as follows: • Period 1:2 weeks orally 400 mg Mg/day (magnesium citrate), • Period 2:2 weeks orally 400 mg Mg/day+10 mg Si/day (magnesium citrate and choline-stabilized orthosilicic acid), • Period 3:2 weeks orally 200 mg Mg/day+5 mg Si/day (magnesium citrate and choline-stabilized orthosilicic acid). • Parameters: patients recorded the frequency of cramps daily in a diary.

muscle cramps [4] = test: Comparative trial in 11 patients with frequent muscle cramps, cramp frequency recorded daily in a diary (Example 9); assay type: in vivo, human
Method: Seven female and 4 male patients (age 27 to 86 years, mean age 56 years) experiencing frequent muscle cramps participated in a comparative trial with the following design: • Period 1: During 1 week 11 patients either • (a) continued with their oral magnesium supplement (6 patients), or • (b) changed from their oral magnesium treatment (2 patients) to an oral magnesium supplement of 180 mg Mg/day (magnesium malate), or • (c) changed from “no magnesium” pretreatment (3 patients) to an oral magnesium supplement of 180 mg Mg/day (magnesium malate). • One patient had taken quinine sulfate prior to period 1. • Period 2: all patients (n=11) took 4 weeks 360 mg Mg/day (magnesium malate)+10 mg Si/day (choline-stabilized orthosilicic acid, ch-OSA®) • Parameters: patients recorded daily the frequency of cramps in a diary.

NCC1(CC(=O)O)CCCCC1 [Gabapentin]
effect on symptom scores (muscle cramps [1]; Class I clinical study, versus placebo): no difference was found between treatment and placebo with respect to any symptom score

COc1ccc([C@@H]2Sc3ccccc3N(CCN(C)C)C(=O)[C@@H]2OC(C)=O)cc1 [diltiazem hydrochloride]
effect on intensity of cramps (muscle cramps [1]; Class II study): no effect on the intensity of cramps

O=S(=O)([O-])[O-].[Mg+2] [magnesium sulphate]
effect on number of cramps, severity, duration, sleep disturbance (muscle cramps [1]; Class II study, 300 mg dose, versus placebo): not superior to placebo for number of cramps, severity, duration or sleep disturbance

[Mg] [magnesium]
effect on recurrent muscle cramps (muscle cramps [2]): not effective and did not provide any relief or inhibition of the muscle cramps | conclusion on frequency of cramps (muscle cramps [3]; magnesium alone versus combination with bioavailable silicon supplement, Example 8): not effective in reducing the frequency of cramps compared to the combination | Number of cramps Mean ± SE (muscle cramps [4]; Week 1: own oral magnesium supplement or 180 mg Mg/day (magnesium malate), n=11): 18.9 ± 7.4^ | conclusion on relief of muscle cramps (muscle cramps [4]; monotherapy of oral magnesium, Example 9): not effective in relieving muscle cramps | cramp prophylaxis (muscle cramps [1]; Garrison 2012 Cochrane review of seven trials, older adults with skeletal muscle cramps): unlikely that magnesium supplementation provides a clinically meaningful cramp prophylaxis to older adults | effect on leg cramps in pregnancy (muscle cramps [1]; Leal de Araújo 2020, oral magnesium supplementation during pregnancy): did not reduce the occurrence and frequency of episodes of leg cramps

CCN(CC)CCOC(=O)C(Cc1cccc2ccccc12)CC1CCCO1 (stereo not drawn) [naftidrofuryl oxalate]
effect on cramps and sleep disturbance (muscle cramps [1]; literature study): no effect on the mean number of cramps, number of nights with cramps or sleep disturbance

C=C[C@H]1C[N@@]2CC[C@H]1C[C@H]2[C@H](O)c1ccnc2ccc(OC)cc12 [quinine]
side effects (muscle cramps [1]; reported in the literature (Katzberg 2010; FDA alert 2012)): common and serious side effects | effect on idiopathic leg cramps (muscle cramps [1]; systematic reviews and randomized clinical trials (Young 2015), versus placebo): may reduce the frequency of idiopathic leg cramps at night compared to placebo

magnesium citrate [Mg]
cramps/day, individual patients (muscle cramps [3]; A: 2 weeks 400 mg Mg/day orally (magnesium citrate), patients 1-6, one value per patient): 0.43 cramps/day (2×) and 1.07 cramps/day and 0.36 cramps/day and 1.79 cramps/day and 0.5 cramps/day | cramps/day, Mean (muscle cramps [3]; A: 2 weeks 400 mg Mg/day orally, mean of 6 patients): 0.76 cramps/day | effect on number of cramps (muscle cramps [1]; Class II study, 900 mg): could not conclude that there was a significant improvement in the number of cramps
